Results on three compounds are retold here after PMC7466295, “An Absorption and Plasma Kinetics Study of Monoterpenes Present in Mastiha Oil in Humans” (Foods, 2020).

Details of data set [1]: method as in PMID 29197300. To be noted: rats, oral administration; cited from earlier work.
A short description of data set [2]: Postprandial plasma kinetics of monoterpenes after a single dose of Mastiha Oil (GC-MS-MS). The settings on record: for Time of first detection in plasma: human plasma after 1 mL MO; for Area Under Curve: 1 mL MO oral single dose, linear trapezoidal method; for concentration at 4 h: 4 h after 1 mL MO; for concentration at 24 h: 24 h after 1 mL MO; for Cmax / Tmax: healthy males, 1 mL MO oral single dose after overnight fasting. It counts as in vivo, human. The source says:
An open label intervention trial was designed to assess the postprandial plasma levels of the main monoterpenes present in MO and their effect in antioxidant capacity. A kinetic approach was applied. Fifty apparently healthy male adults were screened. Ten volunteers were found eligible to the study according to specific criteria (Table 1). Eligible subjects were informed about the aims, methodology, expected effect and any risk from the Information Leaflet of the study, before signing an Informed Consent. The investigator explained that participation was voluntary and participants received a copy of the signed Informed Consent.
A Thermo Ultra GC-Thermo XLS Quantum GC-MS-MS Triple Quad with a DB-5 ms 30 × 0.25 × 0.25 capillary column (Merck KGaA, Darmstadt, Germany) was used. The sample was injected using a Programmed Temperature Vaporizing (PTV) injector that allows concentration of samples, using an automated sampler. Injection volume was 1 µL.
To be able to determine low ppb levels, a GC-MS-MS technique was performed. Signal to noise improves radically compared to traditional GC-MS methods. Full scan MS-MS was first employed in analytical standards which run individually to determine the parent and daughter ions and retention times were validated with the use of analytical standards which run individually.
Initial temperature was held at 50 °C for 2 min. Then temperature was ramped to 60 °C with a rate of 5 °C/min. The temperature reached 270 °C at a rate of 7 °C/min. Injector temperature was set at 250 °C. The splitless injected volume was 1 µL. At 1.2 min the splitless valve switched.
The MS-MS conditions were as follows: Parent Ion was m/z 93 and daughter ions were 91 and 77 for all compounds. Collision energy was set at 8 V and collision gas pressure was 1.5 mTorr. MS-MS scan time was set at 0.15 s. The peak width was maintained at 0.7 amu.
For sample preparation, a 1:1 mixture of ethyl-acetate:hexane was used and equal volumes of blood plasma and extractant were put in centrifuge tubes and vortexed for 20 min. The samples were then centrifuged and filtrated before injection.
To be able to determine low ppb levels, a GC-MS-MS technique was performed, which, compared to traditional GC-MS methods, improves signal to noise values and thus sensitivity in the identification of compounds. Full scan MS-MS was first employed in analytical standards which run individually to determine the parent and daughter ions of the three terpenes and their retention times. Identification of chromatographic peaks was accomplished by using the parent ion and most abundant daughter ion of each compound and comparing the retention times with those of reference standards. For quantification, blank plasma samples (collected prior to MO administration) were spiked with standard monoterpene solutions ([…]), and were treated identically to the samples, since the standard addition method used eliminates the matrix effect. The standard monoterpene solutions were prepared in ethyl acetate in the range 2–2000 μg/L by diluting stock solutions (1 mg/mL). In all preliminary tests the average recovery for the monoterpenes studied was >80% and the detection limit was 0.02 µg/L.
The maximum concentrations of monoterpenes (Cmax) and the time intervals (Tmax) were obtained from each participant’s plasma concentration–time curve. The area under the plasma concentration–time curve (AUC) was analysed using the Linear Trapezoidal method.

[3] abbreviates: male, oral, human plasma, mean ± SEM.

In the case of `CC1=CCC2CC1C2(C)C` (stereo not drawn) [α-Pinene, α-pinene], in data set [1], the “Time at which bioavailable in plasma” value is 0.17 h and the “Time of peak concentration in plasma” value was 2.5 h. Besides, the “Time of first detection in plasma” value in data set [2] was determined as 0.5 h. The “Area Under Curve” value in data set [2] (human plasma, mean ± SEM) was found to be 7865.2 ± 5547.3 ng·h/mL. Further, in data set [2] (setting [3]), the concentration at 4 h came out at 839 ± 189 ng/mL and the concentration at 24 h came out at 80.6 ± 7.3 ng/mL. For the same compound, in data set [2] (male, human plasma, mean ± SEM), the Cmax came out at 915 ± 551 ng/mL and the Tmax came out at 3.8 ± 1.2 h.

As to `C=CC(=C)CCC=C(C)C` [Myrcene, myrcene], the “Time of first detection in plasma” value in data set [2] stood at 0.5 h. Further, the “Area Under Curve” value in data set [2] (human plasma, mean ± SEM) is 15318.0 ± 7313.3 ng·h/mL. For the same compound, the concentration at 0.5 h in data set [2] (male, oral, human plasma, 0.5 h after 1 mL MO, mean ± SEM) is 775 ± 64 ng/mL. Also, the concentration at 2 h in data set [2] (male, oral, human plasma, 2 h after 1 mL MO, mean ± SEM) was 906 ± 44.6 ng/mL. In data set [2] (setting [3]), the concentration at 24 h is 648 ± 60.3 ng/mL. In addition, in data set [2] (male, human plasma, mean ± SEM), the highest concentration (Cmax) amounted to 967 ± 89.7 ng/mL and the Tmax amounted to 2.2 ± 1.7 h.

Turning to `C=C1CCC2CC1C2(C)C` (stereo not drawn) [β-Pinene, β-pinene], the “Time of first detection in plasma” value in data set [2] is 0.5 h. Further, in data set [2] (human plasma, mean ± SEM), the “Area Under Curve” value was determined as 164.0 ± 110.8 ng·h/mL. In data set [2] (setting [3]), this compound registered a concentration at 4 h of 16.7 ± 3.5 ng/mL and a concentration at 24 h of 2.1 ± 0.3 ng/mL. In data set [2] (male, human plasma, mean ± SEM), the Cmax was found to be 18 ± 10.7 ng/mL and the Tmax turned out to be 3.6 ± 0.9 h.
